The record followed here is the kinase profiling compilation of Christmann-Franck et al. (2016).

Structures are written as SMILES.

Common to all, as to assay: KINOMEscan competition binding
Settings in all cases: compound 10.0 µM

The test system of test [1] is PIK3CA (human), P42336 [H1047Y].
For test [2], the system named is ABL1 (human), P00519 [E255K].
Test [3] relates to PIK3CA (human), P42336 [I800L].
Test [4] deals with PIK3CA (human), P42336 [E545K].
For test [5], the system named is FLT3 (human), P36888 [K663Q].
The subject of test [6] is PIK3CA (human), P42336 [Q546K].
The subject of test [7] is PIK3CA (human), P42336 [C420R].
In test [8] the test system is PIK3CA (human), P42336 [E545A].
For test [9], the system named is EIF2AK4 KD2 (human), Q9P2K8 [S808G].
Test [10] concerns KIT (human), P10721 [V559D].
Test [11] concerns FLT3 (human), P36888 [ITD].
Test [12] concerns FLT3 (human), P36888 [N841I].
Test [13] relates to KIT (human), P10721 [D816V].
In test [14] the test system is ABL1 (human), P00519 [M351T].
The subject of test [15] is KIT (human), P10721 [V559D/T670I].
For test [16], the system named is EGFR (human), P00533 [746-750 del].
Test [17] relates to EGFR (human), P00533 [L861Q].
The test system of test [18] is EGFR (human), P00533 [P753S; 747-752 del].
The subject of test [19] is EGFR (human), P00533 [G719S].

Chain of KIT (human), P10721 [D816V] (P10721 whole entry D816V, looked up): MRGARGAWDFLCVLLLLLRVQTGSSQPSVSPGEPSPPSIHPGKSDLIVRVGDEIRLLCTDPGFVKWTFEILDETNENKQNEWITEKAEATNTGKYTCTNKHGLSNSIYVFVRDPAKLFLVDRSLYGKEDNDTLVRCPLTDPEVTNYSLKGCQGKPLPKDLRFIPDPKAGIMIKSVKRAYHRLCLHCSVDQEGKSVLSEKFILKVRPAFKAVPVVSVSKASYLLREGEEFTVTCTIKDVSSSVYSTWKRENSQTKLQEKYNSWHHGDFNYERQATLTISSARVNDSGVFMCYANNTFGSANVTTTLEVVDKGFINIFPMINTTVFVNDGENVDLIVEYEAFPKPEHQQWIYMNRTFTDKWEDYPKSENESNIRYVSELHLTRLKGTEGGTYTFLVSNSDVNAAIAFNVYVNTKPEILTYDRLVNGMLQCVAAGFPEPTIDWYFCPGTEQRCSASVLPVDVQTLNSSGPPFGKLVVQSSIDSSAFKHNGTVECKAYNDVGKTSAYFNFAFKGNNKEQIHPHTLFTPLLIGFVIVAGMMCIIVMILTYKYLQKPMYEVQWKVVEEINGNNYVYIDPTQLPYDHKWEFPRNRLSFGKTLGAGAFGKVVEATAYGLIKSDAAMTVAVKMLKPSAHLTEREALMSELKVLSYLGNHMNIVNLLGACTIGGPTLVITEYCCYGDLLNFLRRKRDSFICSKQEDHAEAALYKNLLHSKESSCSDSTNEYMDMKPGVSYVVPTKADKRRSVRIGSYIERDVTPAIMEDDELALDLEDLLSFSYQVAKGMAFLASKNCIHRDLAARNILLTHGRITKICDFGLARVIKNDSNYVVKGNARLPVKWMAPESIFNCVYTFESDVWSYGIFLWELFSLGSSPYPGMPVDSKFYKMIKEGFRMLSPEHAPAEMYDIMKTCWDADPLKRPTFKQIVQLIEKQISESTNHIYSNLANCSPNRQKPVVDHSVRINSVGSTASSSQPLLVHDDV
Chain of EIF2AK4 KD2 (human), Q9P2K8 [S808G] (Q9P2K8 whole entry S808G, looked up): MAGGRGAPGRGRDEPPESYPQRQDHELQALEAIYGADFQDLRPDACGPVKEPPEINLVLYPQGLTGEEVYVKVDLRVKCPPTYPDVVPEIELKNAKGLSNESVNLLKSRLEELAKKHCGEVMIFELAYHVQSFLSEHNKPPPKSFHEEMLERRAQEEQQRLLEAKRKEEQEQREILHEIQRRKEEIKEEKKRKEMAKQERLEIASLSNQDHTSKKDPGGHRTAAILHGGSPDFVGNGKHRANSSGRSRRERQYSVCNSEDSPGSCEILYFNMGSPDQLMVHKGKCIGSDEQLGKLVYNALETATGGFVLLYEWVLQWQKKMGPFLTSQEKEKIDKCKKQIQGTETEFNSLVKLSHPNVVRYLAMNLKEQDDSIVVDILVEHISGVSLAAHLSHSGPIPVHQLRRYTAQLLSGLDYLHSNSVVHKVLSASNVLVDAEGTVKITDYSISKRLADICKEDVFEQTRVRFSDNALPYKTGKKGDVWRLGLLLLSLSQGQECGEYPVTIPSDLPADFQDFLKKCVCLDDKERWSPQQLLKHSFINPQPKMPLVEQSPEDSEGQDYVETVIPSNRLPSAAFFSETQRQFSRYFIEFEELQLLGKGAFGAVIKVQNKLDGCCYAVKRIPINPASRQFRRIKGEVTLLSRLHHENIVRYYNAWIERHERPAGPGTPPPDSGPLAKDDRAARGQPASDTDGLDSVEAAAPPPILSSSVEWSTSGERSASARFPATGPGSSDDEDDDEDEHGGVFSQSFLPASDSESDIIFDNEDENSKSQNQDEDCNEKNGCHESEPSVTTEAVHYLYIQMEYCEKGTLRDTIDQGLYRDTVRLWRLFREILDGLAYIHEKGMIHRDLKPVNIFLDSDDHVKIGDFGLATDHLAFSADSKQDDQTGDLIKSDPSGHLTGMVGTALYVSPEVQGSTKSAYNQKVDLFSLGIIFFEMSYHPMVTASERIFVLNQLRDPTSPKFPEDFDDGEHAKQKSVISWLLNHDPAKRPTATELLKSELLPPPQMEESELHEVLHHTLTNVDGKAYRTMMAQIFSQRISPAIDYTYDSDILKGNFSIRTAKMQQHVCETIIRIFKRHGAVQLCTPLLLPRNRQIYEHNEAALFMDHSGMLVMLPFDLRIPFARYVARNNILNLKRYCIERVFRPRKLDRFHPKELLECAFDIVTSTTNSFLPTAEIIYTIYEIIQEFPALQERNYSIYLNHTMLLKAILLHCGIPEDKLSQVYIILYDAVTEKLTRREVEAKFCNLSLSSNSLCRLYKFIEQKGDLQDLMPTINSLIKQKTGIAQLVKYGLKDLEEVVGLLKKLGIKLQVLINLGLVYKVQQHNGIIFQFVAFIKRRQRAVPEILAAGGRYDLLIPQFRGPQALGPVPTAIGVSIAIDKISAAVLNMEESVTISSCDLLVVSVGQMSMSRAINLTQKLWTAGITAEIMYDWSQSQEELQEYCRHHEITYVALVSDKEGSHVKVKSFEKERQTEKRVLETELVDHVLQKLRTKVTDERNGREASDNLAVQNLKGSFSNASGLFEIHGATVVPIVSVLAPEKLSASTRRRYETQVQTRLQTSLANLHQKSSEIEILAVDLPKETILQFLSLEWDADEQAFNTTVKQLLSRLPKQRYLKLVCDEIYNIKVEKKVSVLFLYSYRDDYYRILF
Chain of KIT (human), P10721 [V559D/T670I] (P10721 whole entry V559D/T670I, looked up): as the sequence (P10721 whole entry D816V, looked up) above, with V559D, T670I, V816D counted along it
Chain of PIK3CA (human), P42336 [I800L] (P42336 whole entry I800L, looked up): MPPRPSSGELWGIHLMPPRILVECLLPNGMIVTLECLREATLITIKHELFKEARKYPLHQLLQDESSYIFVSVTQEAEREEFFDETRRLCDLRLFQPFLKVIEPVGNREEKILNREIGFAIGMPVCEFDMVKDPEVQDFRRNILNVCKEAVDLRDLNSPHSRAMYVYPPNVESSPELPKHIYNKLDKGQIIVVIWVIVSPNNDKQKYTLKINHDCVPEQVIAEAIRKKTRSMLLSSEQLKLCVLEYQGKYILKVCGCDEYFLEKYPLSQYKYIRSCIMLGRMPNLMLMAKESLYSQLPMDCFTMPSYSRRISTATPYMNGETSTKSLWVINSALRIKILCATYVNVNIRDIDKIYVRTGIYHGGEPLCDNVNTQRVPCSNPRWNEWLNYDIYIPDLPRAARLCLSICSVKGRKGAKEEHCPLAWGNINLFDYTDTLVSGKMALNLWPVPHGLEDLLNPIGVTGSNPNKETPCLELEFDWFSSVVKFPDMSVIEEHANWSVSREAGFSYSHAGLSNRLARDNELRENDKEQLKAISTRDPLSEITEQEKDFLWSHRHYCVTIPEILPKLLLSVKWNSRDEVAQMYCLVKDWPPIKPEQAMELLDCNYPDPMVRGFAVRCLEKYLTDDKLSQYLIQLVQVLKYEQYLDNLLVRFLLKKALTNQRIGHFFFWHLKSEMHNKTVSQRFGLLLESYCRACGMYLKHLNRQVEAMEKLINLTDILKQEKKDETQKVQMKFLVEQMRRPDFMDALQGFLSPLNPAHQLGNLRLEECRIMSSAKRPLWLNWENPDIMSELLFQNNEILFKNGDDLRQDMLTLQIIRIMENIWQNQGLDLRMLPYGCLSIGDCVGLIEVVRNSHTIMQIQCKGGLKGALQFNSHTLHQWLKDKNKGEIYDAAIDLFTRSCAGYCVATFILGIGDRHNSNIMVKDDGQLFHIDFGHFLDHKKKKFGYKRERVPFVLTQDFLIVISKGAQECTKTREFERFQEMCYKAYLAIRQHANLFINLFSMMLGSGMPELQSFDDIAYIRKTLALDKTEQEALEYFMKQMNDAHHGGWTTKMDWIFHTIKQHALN
Chain of KIT (human), P10721 [V559D] (P10721 whole entry V559D, looked up): as the sequence (P10721 whole entry D816V, looked up) above, with V559D, V816D counted along it
Chain of PIK3CA (human), P42336 [E545A] (P42336 whole entry E545A, looked up): as the sequence (P42336 whole entry I800L, looked up) above, with E545A, L800I counted along it
Chain of PIK3CA (human), P42336 [H1047Y] (P42336 whole entry H1047Y, looked up): as the sequence (P42336 whole entry I800L, looked up) above, with L800I, H1047Y counted along it
Chain of PIK3CA (human), P42336 [E545K] (P42336 whole entry E545K, looked up): as the sequence (P42336 whole entry I800L, looked up) above, with E545K, L800I counted along it
Chain of PIK3CA (human), P42336 [C420R] (P42336 whole entry C420R, looked up): as the sequence (P42336 whole entry I800L, looked up) above, with C420R, L800I counted along it
Chain of PIK3CA (human), P42336 [Q546K] (P42336 whole entry Q546K, looked up): as the sequence (P42336 whole entry I800L, looked up) above, with Q546K, L800I counted along it

With `N#C/C(=C1/Nc2ccccc2S1)c1ccnc(NCCc2cccnc2)n1`, the kinase still bound, per cent of control came out at 66% in test [1]; 79% in test [2]; 27% in test [3]; 96% in test [4]; 95% in [5]; 81% in test [6]. Moreover, the kinase still bound, per cent of control came to 86% in [7]; 41% in [8]; 60% in [9]; 26% in [10]; 92% in [11]; 48% in test [12]. The kinase still bound, per cent of control in [13] came out at 50%; in test [14] it was 88%; in test [15], 52%.
For `CCN1CCN(Cc2ccc(NC(=O)c3ccc(C)c(/C=C/c4cnc5[nH]ccc5c4OC)c3)cc2C(F)(F)F)CC1`, the kinase still bound, per cent of control in test [16] came to 3.8%; in test [17] it was 0%; in [1] it was 90%; in [2], 1%; in test [3] it was 100%; in test [4] it was 100%. Further, the kinase still bound, per cent of control in [5] came to 0.05%; in test [7], 100%; in test [8], 92%; in test [9] it was 0.6%; in [10], 0%; in test [18], 0.55%. Further, the kinase still bound, per cent of control in [11] was found to be 0.35%; in test [19], 0%; in [12], 0.25%; in [13], 0.65%; in [14], 2.2%; in test [15] it was 0.05%.
As to `CCc1nc(-c2cccc(C)c2)c(-c2ccnc(NC(=O)c3ccccc3)c2)s1`, the kinase still bound, per cent of control is 50% in [1]; 24% in test [2]; 99% in test [3]; 98% in [4]; 17% in test [5]; 32% in test [6]. The kinase still bound, per cent of control in test [7] came to 72%; in [8], 54%; in test [9], 100%; in test [10], 32%; in test [11] it was 50%; in test [12] it was 28%. In test [13], this molecule returned a kinase still bound, per cent of control of 5.6%.
Turning to `C[C@@H](Oc1cc(-c2cnn(C3CCNCC3)c2)cnc1N)c1c(Cl)ccc(F)c1Cl`, the kinase still bound, per cent of control in test [1] amounted to 18%; in test [4], 100%; in test [5], 5.6%; in test [6], 17%; in test [7] it was 71%; in test [8], 21%. Besides, the kinase still bound, per cent of control is 100% in test [9]; 27% in test [10]; 2% in test [12]; 32% in [13]; 7% in [15].
`COCC(=O)NC/C=C/c1ccc2ncnc(Nc3ccc(Oc4ccc(C)nc4)c(C)c3)c2c1`: the kinase still bound, per cent of control in [1] was determined as 47%; in [3], 100%; in [4] it was 100%; in [5], 79%; in test [6], 38%; in [8], 33%. In addition, the kinase still bound, per cent of control in test [9] amounted to 81%; in [10], 17%; in test [11] it was 87%; in test [12] it was 79%; in test [13] it was 89%; in test [15], 100%.
In the case of `COc1cc2ncn(-c3cc(OCc4ccccc4C(F)(F)F)c(C(N)=O)s3)c2cc1OC`, the kinase still bound, per cent of control in test [17] amounted to 100%; in [1], 36%; in [2], 60%; in test [3], 24%; in [4], 90%; in [6] it was 96%. The kinase still bound, per cent of control in [7] is 100%; in [8] it was 54%; in test [9], 16%; in test [10], 21%; in test [18], 63%; in [11], 26%. Besides, the kinase still bound, per cent of control in [19] came out at 98%; in [13] it was 1.4%; in test [14], 81%; in [15], 21%.
For the molecule `CC(=O)c1c(C)c2cnc(Nc3ccc(N4CCNCC4)cn3)nc2n(C2CCCC2)c1=O`, the kinase still bound, per cent of control in test [17] is 82%; in test [1] it was 17%; in test [2] it was 44%; in test [3], 6%; in test [4] it was 75%; in [5], 30%. In addition, the kinase still bound, per cent of control in test [6] turned out to be 10%; in [7] it was 41%; in test [8], 10%; in test [9], 0.4%; in test [10], 45%; in test [18] it was 87%. The kinase still bound, per cent of control is 20% in [11], 2.1% in test [12], 74% in [13] and 61% in test [15].
Take `N#CCNC(=O)c1ccc(-c2ccnc(Nc3ccc(N4CCOCC4)cc3)n2)cc1`: the kinase still bound, per cent of control in test [16] was found to be 100%; in [17], 66%; in test [1], 100%; in [2], 29%; in [4], 100%; in test [6], 100%. Further, the kinase still bound, per cent of control in test [7] was 100%; in test [9], 1.2%; in test [10], 16%; in [18], 100%; in [11], 22%; in test [19], 79%. The kinase still bound, per cent of control in [12] is 2.2%; in test [13], 16%; in test [14], 66%; in [15], 45%.
Regarding `NC(=O)Nc1cc(-c2cccc(F)c2)sc1C(=O)N[C@@H]1CCCNC1`, the kinase still bound, per cent of control in test [16] was 4.2%; in [17], 1.5%; in [1], 36%; in [2], 0%; in test [3] it was 100%; in test [4], 100%. The kinase still bound, per cent of control stood at 0.1% in test [5]; 83% in test [6]; 62% in test [7]; 16% in test [8]; 0.3% in test [9]; 4.6% in [18]. Further, the kinase still bound, per cent of control in test [11], in test [19], in [12] and in test [14] was 0% throughout.
For the molecule `CNC(=O)c1cc(Oc2ccc(NC(=O)Nc3ccc(Cl)c(C(F)(F)F)c3)cc2)ccn1`, the kinase still bound, per cent of control was found to be 0.5% in test [5]; 0.05% in [10]; 2.8% in test [11]; 0.25% in [12]; 3.6% in test [13]; 0.1% in test [15].
